In the supplement of paper PMC10307832:

Legend:
Experiment in all cases: relative viability (nuclei count vs DMSO), 5 days (fraction); higher = more cells survive
[1] = compound: C[As](C)SC[C@H](NC(=O)CC[C@H](N)C(=O)O)C(=O)NCC(=O)O [Darinaparsin] + N=C(N)NC(=N)NCCc1ccccc1 [Phenformin] (partner 250 µM)
Summary of the method: (§1)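 Lung cancer cell lines were pin-tool dosed in 1536-well plates on the day after seeding, with either a lone drug or a fixed anchor-drug dose plus five library-drug doses (not always all listed) in √10 steps. Nuclei were counted on 4× images after 5 days. Relative viability is the ratio of treated-well to vehicle-well nuclei counts, with each value a median of duplicate plates.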

[2] = compound: C1CC2=C(C1)C=C(C=C2)OC3=NC(=C4C(=N3)N(C=N4)CC5=CC=C(C=C5)C6=CC=CC=C6)N[C@@H](CC7=CC=CC=C7)CO [QS11] + O=C(CCCCCCC(=O)Nc1ccccc1)NO [Vorinostat] (partner 1 µM)
Summary of the method: as §1

[3] = compound: CC1=C(C=C(C=C1)NC(=O)C2=CC(=CC=C2)C(C)(C)C#N)NC3=CC4=C(C=C3)N=CN(C4=O)C [AZ628] + C[C@]1(O)C[C@@H](c2nc(-c3ccc4ccc(-c5ccccc5)nc4c3)c3c(N)nccn32)C1 [Linsitinib] (partner 1 µM)
Summary of the method: as §1

[4] = compound: C1CC2=C(C1)C=C(C=C2)OC3=NC(=C4C(=N3)N(C=N4)CC5=CC=C(C=C5)C6=CC=CC=C6)N[C@@H](CC7=CC=CC=C7)CO [QS11] + Cc1cc(Nc2cc(N3CCN(C)CC3)nc(Sc3ccc(NC(=O)C4CC4)cc3)n2)n[nH]1 [Tozasertib] (partner 0.1 µM)
Summary of the method: as §1

| Cell Line | relative viability ([1]; first compound 0.08 µM) | relative viability ([1]; first compound 2.53 µM) | relative viability ([1]; first compound 8 µM) | relative viability ([2]; first compound 0.08 µM) | relative viability ([2]; first compound 0.253 µM) | relative viability ([2]; first compound 0.8 µM) | relative viability ([2]; first compound 2.53 µM) | relative viability ([2]; first compound 8 µM) | relative viability ([3]; first compound 0.08 µM) | relative viability ([3]; first compound 0.253 µM) | relative viability ([3]; first compound 0.8 µM) | relative viability ([3]; first compound 2.53 µM) | relative viability ([3]; first compound 8 µM) | relative viability ([4]; first compound 0.08 µM) | relative viability ([4]; first compound 0.253 µM) | relative viability ([4]; first compound 0.8 µM) | relative viability ([4]; first compound 2.53 µM) | relative viability ([4]; first compound 8 µM) | relative viability ([1]; first compound 0.8 µM) |
| --- | --- | --- | --- | --- | --- | --- | --- | --- | --- | --- | --- | --- | --- | --- | --- | --- | --- | --- | --- |
| LK-2 | 0.399 | 0.346 | 0.429 | 0.282 | 0.27 | 0.467 | 0.323 | 0.28 | 0.694 | 0.458 | 0.437 | 0.527 | 0.235 | 0.177 | 0.194 | 0.181 | 0.173 | 0.19 | – |
| NCI-H23 | 0.935 | 0.86 | 0.842 | 0.542 | 0.6 | 0.564 | 0.544 | 0.491 | 0.562 | 0.481 | 0.28 | 0.376 | 0.32 | 0.277 | 0.413 | 0.273 | 0.253 | 0.266 | 0.839 |
| NCI-H2228 | 0.254 | 0.328 | 0.387 | 0.62 | 0.535 | 0.61 | 1.17 | 0.741 | 0.504 | 0.686 | 0.622 | 1.1 | 0.517 | 0.195 | 0.241 | 0.309 | 0.296 | 0.289 | 0.281 |
| NCI-H441 | 1.13 | 0.597 | 0.88 | 0.855 | 0.857 | 0.658 | 0.53 | 0.717 | 0.64 | 0.494 | 0.549 | 0.425 | 0.396 | 0.642 | 0.572 | 0.582 | 0.481 | 0.581 | 0.821 |
| NCI-H460 | 0.553 | 0.506 | 0.884 | 0.938 | 0.811 | 0.541 | 0.687 | 0.212 | 0.74 | 0.694 | 0.658 | 0.523 | 0.154 | 0.3 | 0.446 | – | 0.0921 | 0.143 | 0.557 |
| LU99A | 0.927 | 0.897 | 0.78 | 0.432 | 0.438 | 0.51 | 0.515 | 0.464 | 0.485 | 0.444 | 0.686 | 0.678 | 0.274 | 0.269 | 0.285 | 0.273 | 0.296 | 0.245 | 0.856 |
| NCI-H358 | 0.429 | 0.331 | 0.376 | 0.64 | 0.602 | 0.782 | 0.65 | 0.49 | 0.644 | 0.622 | 0.66 | 0.582 | 0.398 | 0.099 | 0.106 | 0.108 | 0.101 | 0.109 | 0.387 |
| IA-LM | – | – | – | 0.926 | 1.13 | 0.674 | 0.806 | 0.88 | 0.761 | 0.711 | 0.509 | 0.353 | 0.252 | – | – | – | – | – | – |
| UMC-11 | 0.369 | 0.357 | 0.325 | 0.385 | 0.373 | 0.462 | 0.37 | 0.459 | 1.02 | 1.12 | 1.03 | 0.976 | 1.02 | 0.174 | 0.27 | 0.182 | 0.181 | 0.184 | 0.341 |
